Reference: US9210927B2, “Pesticidal compositions and processes related thereto” (Dow AgroSciences LLC, priority 2013, dated 2015)

What was measured:
Format in all cases: in vivo
BAW (Spodoptera exigua) = assay: Bioassays on Beet Armyworm (BAW), 128-well diet tray assay; conditions: Spodoptera exigua, 168 h, read-out: BAW Rating
How it was run: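 Second-instar larvae (one to five per well) placed on artificial diet treated with 50 μg/cm^2 compound in 90:10 acetone-water, eight wells per compound. Held covered at 25° C., 14:10 light-dark for five to seven days; percent mortality averaged across wells.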

GPA (Myzus persicae) = assay: Bioassays on Green Peach Aphid (GPA), foliar spray on cabbage seedlings; conditions: 72 h, corrected % control (Abbott), 200 ppm spray on cabbage seedlings, three days, read-out: GPA Rating
Description: Bioassays on Green Peach Aphid (“GPA”) (Myzus persicae) Certain molecules disclosed in this document were tested against GPA using procedures described in the following example. In the reporting of the results, the “GPA Rating Table” was used (See Table Section). Cabbage seedlings grown in 3-inch pots, with 2-3 small (3-5 cm) true leaves, were used as test substrate. The seedlings were infested with 20-50 GPA (wingless adult and nymph stages) one day prior to chemical application. Four pots with individual seedlings were used for each treatment. Test compounds (2 mg) were dissolved in 2 mL of acetone/MeOH (1:1) solvent, forming stock solutions of 1000 ppm test compound. The stock solutions were diluted 5× with 0.025% Tween 20 in H2O to obtain the solution at 200 ppm test compound. A hand-held aspirator-type sprayer was used for spraying a solution to both sides of […] leaves until runoff. Reference plants (solvent check) were sprayed with the diluent only containing 20% by volume of acetone/MeOH (1:1) solvent. Treated plants were held in a holding room for three days at approximately 25° C. and ambient relative humidity (RH) prior to grading. Evaluation was conducted by counting the number of live aphids per plant under a microscope. Percent Control was measured by using Abbott's correction formula (W. S. Abbott, “A Method of Computing the Effectiveness of an Insecticide” J. Econ. Entomol. 18 (1925), pp. 265-267) as follows. Corrected % Control=100*(X−Y)/X • where • X=No. of live aphids on solvent check plants and • Y=No. of live aphids on treated plants The results are indicated in the table entitled “Table 3: Assay Results” (See Table Section).

CEW (Helicoverpa zea) = assay: Bioassays on Corn Earworm (CEW), 128-well diet tray assay; conditions: Helicoverpa zea, 168 h; percent mortality, second instar larvae, 50 μg/cm^2 on artificial diet, five to seven days, 25° C.; read-out: CEW Rating
How it was run: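 Second-instar larvae (one to five per well) placed on artificial diet treated with 50 μg/cm^2 compound in 90:10 acetone-water and dried, eight wells per compound. Held 25 °C, 14:10 light-dark, five to seven days; percent mortality scored per well and averaged.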

Structure (SMILES)	pest or weed control at 50 µg/cm2 (BAW (Spodoptera exigua)) [%]	pest or weed control at 200 ppm (GPA (Myzus persicae)) [%]	pest or weed control at 50 µg/cm2 (CEW (Helicoverpa zea)) [%]
Cc1cc(/C=C/C(c2cc(Cl)cc(Cl)c2)C(F)(F)F)ccc1C(=O)NCc1nnc(C2CC2)o1 (stereo not drawn) [AC89, (E)-N-((5-Cyclopropyl-1,3,4-oxadiazol-2-yl)methyl)-4-(3-(3,5-dichlorophenyl)-4,4,4-trifluorobut-1-en-1-yl)-2-methylbenzamide]	50 to 100	0 to 80	50 to 100
O=C(NC1CCN(C(=O)CC(F)(F)F)CC1)c1ccc(/C=C/C(c2cc(Cl)c(Cl)c(Cl)c2)C(F)(F)F)cc1Br (stereo not drawn) [AC104, (E)-2-Bromo-4-(4,4,4-trifluoro-3-(3,4,5-trichlorophenyl)but-1-en-1-yl)-N-(1-(3,3,3-trifluoropropanoyl)piperidin-4-yl)benzamide]	50 to 100	0 to 80	50 to 100
CN1CCC(NC(=O)c2ccc(/C=C/C(c3cc(Cl)c(Cl)c(Cl)c3)C(F)(F)F)cc2Br)CC1 (stereo not drawn) [AC106, (E)-2-Bromo-N-(1-methylpiperidin-4-yl)-4-(4,4,4-trifluoro-3-(3,4,5-trichlorophenyl)but-1-en-1-yl)benzamide]	50 to 100	0 to 80	50 to 100
O=C(CC(F)(F)F)NC1CCCc2cc(/C=C/C(c3cc(Cl)c(Cl)c(Cl)c3)C(F)(F)F)ccc21 (stereo not drawn) [BC5]	50 to 100	0 to 80	50 to 100
O=C(CC(F)(F)F)NC1CCc2cc(/C=C/C(c3cc(Cl)c(F)c(Cl)c3)C(F)(F)F)ccc21 (stereo not drawn) [BC8]	50 to 100	0 to 80	50 to 100
Fc1c(Cl)cc(C(/C=C/c2ccc3c(c2)CCC3NCCC(F)(F)F)C(F)(F)F)cc1Cl (stereo not drawn) [BC10, (E)-5-(3-(3,5-Dichloro-4-fluorophenyl)-4,4,4-trifluorobut-1-en-1-yl)-N-(3,3,3-trifluoropropyl)-2,3-dihydro-1H-inden-1-amine]	50 to 100	0 to 80	50 to 100
O=C(NCc1ccc(/C=C/C(c2cc(Cl)cc(Cl)c2)C(F)(F)F)cc1)C1CC1 (stereo not drawn) [CC2]	50 to 100	0 to 80	50 to 100
CCC(=O)NCc1ccc(/C=C/C(c2cc(Cl)cc(Cl)c2)C(F)(F)F)cc1 (stereo not drawn) [CC4]	50 to 100	0 to 80	0 to 50
O=C(NCc1ccc(/C=C/C(c2cc(Cl)c(Cl)c(Cl)c2)C(F)(F)F)cc1)C1CC1 (stereo not drawn) [CC5]	50 to 100	0 to 80	50 to 100
O=C(CC(F)(F)F)NCc1ccc(/C=C/C(c2cc(Cl)c(Cl)c(Cl)c2)C(F)(F)F)cc1 (stereo not drawn) [CC6]	50 to 100	0 to 80	50 to 100
CC(=O)NCc1ccc(/C=C/C(c2cc(Cl)cc(Cl)c2)C(F)(F)F)cc1Cl (stereo not drawn) [CC7, (E)-N-(2-Chloro-4-(3-(3,5-dichlorophenyl)-4,4,4-trifluorobut-1-en-1-yl)benzyl)acetamide]	50 to 100	0 to 80	50 to 100
O=C(CC(F)(F)F)NCc1ccc(/C=C/C(c2cc(Cl)cc(Cl)c2)C(F)(F)F)cc1Cl (stereo not drawn) [CC9]	50 to 100	0 to 80	50 to 100
O=C(NCc1ccc(/C=C/C(c2cc(Cl)c(Cl)c(Cl)c2)C(F)(F)F)cc1Cl)C1CC1 (stereo not drawn) [CC11]	50 to 100	0 to 80	50 to 100
O=C(NCc1ccc(/C=C/C(c2cc(Cl)c(F)c(Cl)c2)C(F)(F)F)cc1Cl)C1CC1 (stereo not drawn) [CC15]	50 to 100	0 to 80	50 to 100
O=C(NCc1ccc(/C=C/C(c2ccc(Cl)c(Cl)c2)C(F)(F)F)cc1Cl)C1CC1 (stereo not drawn) [CC17]	50 to 100	0 to 80	50 to 100
O=C(CC(F)(F)F)NCc1ccc(/C=C/C(c2ccc(Cl)c(Cl)c2)C(F)(F)F)cc1Cl (stereo not drawn) [CC18]	50 to 100	0 to 80	50 to 100
CSCCC(=O)NCc1ccc(/C=C/C(c2cc(Cl)c(Cl)c(Cl)c2)C(F)(F)F)cc1Cl (stereo not drawn) [CC19]	50 to 100	0 to 80	50 to 100
O=C(NCc1ccc(/C=C/C(c2cc(Cl)c(Cl)c(Cl)c2)C(F)(F)F)cc1C(F)(F)F)C1CC1 (stereo not drawn) [CC22]	50 to 100	0 to 80	50 to 100
O=C(NCc1ccc(/C=C/C(c2cc(Cl)c(Cl)c(Cl)c2)C(F)(F)F)cc1C(F)(F)F)c1cccnc1 (stereo not drawn) [CC23]	50 to 100	0 to 80	50 to 100
O=C(CC(F)(F)F)NCc1ccc(/C=C/C(c2cc(Cl)c(Cl)c(Cl)c2)C(F)(F)F)cc1Br (stereo not drawn) [CC25]	50 to 100	0 to 80	50 to 100
O=C(C1CC1)N(Cc1ccccn1)Cc1ccc(/C=C/C(c2cc(Cl)c(Cl)c(Cl)c2)C(F)(F)F)cc1C(F)(F)F (stereo not drawn) [CC29, (E)-N-(Pyridin-2-ylmethyl)-N-(4-(4,4,4-trifluoro-3-(3,4,5-trichlorophenyl)but-1-enyl)-2-(trifluoromethyl)benzyl)cyclopropanecarboxamide]	50 to 100	0 to 80	50 to 100
CCNC(=O)NCc1ccc(/C=C/C(c2cc(Cl)c(Cl)c(Cl)c2)C(F)(F)F)cc1C(F)(F)F (stereo not drawn) [CC32]	50 to 100	0 to 80	50 to 100
CCNC(=O)NCc1ccc(/C=C/C(c2cc(Cl)c(Cl)c(Cl)c2)C(F)(F)F)cc1Br (stereo not drawn) [CC33]	50 to 100	0 to 80	50 to 100
O=C(NCc1ccc(/C=C/C(c2cc(Cl)c(Cl)c(Cl)c2)C(F)(F)F)cc1Cl)N1CCOCC1 (stereo not drawn) [CC34]	50 to 100	0 to 80	50 to 100
FC(F)(F)C(/C=C/c1ccc(CNc2ccccn2)c(Cl)c1)c1cc(Cl)c(Cl)c(Cl)c1 (stereo not drawn) [CC43, (E)-N-(2-Chloro-4-(4,4,4-trifluoro-3-(3,4,5-trichlorophenyl)but-1-en-1-yl)benzyl)pyridin-2-amine]	50 to 100	0 to 80	0 to 50
O=C(CC(F)(F)F)NCc1ncc(/C=C/C(c2cc(Cl)c(Cl)c(Cl)c2)C(F)(F)F)cc1Cl (stereo not drawn) [CC44, (E)-N-((3-Chloro-5-(4,4,4-trifluoro-3-(3,4,5-trichlorophenyl)-but-1-en-1-yl)pyridin-2-yl)methyl)-3,3,3-trifluoropropanamide]	50 to 100	0 to 80	50 to 100
FC(F)(F)C(/C=C/c1ccc(-n2cncn2)cc1)c1ccc(Cl)c(Cl)c1 (stereo not drawn) [DC12]	50 to 100	0 to 80	50 to 100
COc1c(Cl)cc(C(/C=C/c2ccc(-n3cncn3)c(C#N)c2)C(F)(F)F)cc1Cl (stereo not drawn) [DC34]	50 to 100	0 to 80	50 to 100
N#Cc1cc(/C=C/C(c2cc(Cl)c(F)c(Cl)c2)C(F)(F)F)ccc1-n1cncn1 (stereo not drawn) [DC35]	50 to 100	0 to 80	50 to 100
